This note sets out measurements from patent publication US5973116A, “Compounds for targeting” (Imperial Cancer Research Technology Limited, priority 1993, dated 1999).

The test system of experiment [1] is pRAS111 ScFvNP protein (VHNP (G4S)3 VλJ558L, SEQ ID No 3). As to the kind of experiment: ELISA-based affinity determinations of pRAS111 ScFvNP protein (methods of Mariani et al 1987 and Hogg et al 1987). It is filed as binding, mouse. The settings on record: for Kd: antigen coat. The source says: Affinity of pRAS111 ScFv for NIP was estimated firstly by adapting the method of Mariani et al (1987) Molec. Immunol. […] This approximation only holds true if the number of available binding sites per well is sufficiently low that their contribution is insignificant. Determinations of Kapp should approach Kactual as the amount of antigen per well is reduced.
To confirm the accuracy of this approach, similar estimations of K were made using the method of Hogg et al (1987) Molec. Immunol. 24, 797-801) in the absence of competing antigen, by calculating the slope of the linear portion of a plot of A450 /[ScFvNP ] v A450, where A450 /[ScFvNP ]=fKn-fK(A450), A450 is the absorbance at 450 nm, [ScFvNP ] is the concentration of added ScFvNP, n is the concentration of available binding sites and f is the valency of the ScFvNP for NIP. A value of 1 was assigned to f.
A general note: ELISA stands for enzyme-linked immunosorbent assay.

Experiment [2] addresses ScFv encoded by pRAS111 (ScFvNP, VHNP (G4S)3 VλJ558L, SEQ ID No 3). The experiment is described as follows: ELISA binding and competition of pRAS111 ScFv on a NIP15-BSA coat. Also on record: species or system mouse. Conditions: read-out: binding affinity for NP, Kd. As for the experimental part: Filtered bacterial supernatants were applied to wells of a 96-well plate previously coated with […] NIP15 -BSA or […] egg lysozyme, and bound protein was detected by serial incubation with biotinylated Gαmλ antiserum and HRPO-streptavidin conjugate. Colour changes were generated by incubation with ABTS and were monitored at 405 nm.
A soluble protein present in the growth medium of JM109 (DE3)/pRAS111 cultures, but not in cultures of JM109 (DE3), binds NIP15 -BSA, but not lysozyme (FIG. 5). Filtered bacterial growth medium recovered after induction of pRAS111 protein was applied to wells of an ELISA plate coated with 10 μg.ml^-1 NIP15 -BSA (.circle-w/dot.) or 300 μg.ml^-1 hen egg lysozyme (.diamond-solid.). Bound protein was detected by serial incubation with biotinylated Gαmλ (Goat anti-mouse lambda light chain) antisera and horseradish peroxidase conjugated streptavidin diluted in blocking buffer, and colour changes generated by addition of ABTS were monitored at 405 nm. A soluble protein present in the growth medium of JM109(DE3)/pRAS111 cultures, but not in cultures of JM109(DE3), binds NIP15 -BSA, can be competed with NIP15 -BSA (FIG. 6). […] Bound protein was detected by serial incubation with biotinylated Gαmλ antisera and horseradish peroxidase conjugated streptavidin, and colour changes generated by addition of ABTS were monitored at 405 nm.

Setting [3] is: concn 5 mg ml^-1 of coating buffer, no competing antigen, f = 1, read-out: K, Hogg et al (1987) (converted).
The mark [4] stands for this setting: concn 5 mg ml^-1 of coating buffer, read-out: K, Mariani et al (1987) (converted).

Where two headings read alike, the source gives them in different places.

For `O=C(O)Cc1cc(I)c(O)c([N+](=O)[O-])c1` [NIP, 4-hydroxy-3-iodo-5-nitrophenylacetic acid], in experiment [1] (method of Mariani et al (1987), Ct50 = 1/Kapp, at low amount of antigen per well), the “Kapp, affinity for NIP (K)” value is listed as 2-3×10^8 M^-1.

Take “NIP4 BSA: low coupling ratio NIP-BSA, 3.7 haptens per protein molecule”: the Kd in experiment [1] (setting [3]) is 5.56 nM; in experiment [1] (setting [4]), 4 nM; in experiment [1] (concn 10 mg ml^-1 of coating buffer, no competing antigen, f = 1, read-out: K, Hogg et al (1987) (converted)), 8.33 nM; in experiment [1] (concn 10 mg ml^-1 of coating buffer, read-out: K, Mariani et al (1987) (converted)), 3.45 nM.

Consider `O=C(O)Cc1ccc(O)c([N+](=O)[O-])c1` [NP, 4-hydroxy-3-nitrophenylacetic acid], for which the Kd in experiment [2] is 4 nM.

Consider “NIP16 BSA: high coupling ratio NIP-BSA, 16.4 haptens per protein molecule”, for which the Kd in experiment [1] (concn 1 mg ml^-1 of coating buffer, no competing antigen, f = 1, read-out: K, Hogg et al (1987) (converted)) is 1.23 nM; in experiment [1] (concn 1 mg ml^-1 of coating buffer, read-out: K, Mariani et al (1987) (converted)) it was 1.22 nM; in experiment [1] (setting [3]), 0.625 nM; in experiment [1] (setting [4]), 0.4 nM.

On to “NIP conjugated to BSA: hapten NIP coupled to BSA via NIP-cap-OSu”, for which the “affinity for NIP conjugated to BSA” value in experiment [1] (pH 7.4) is recorded as 1-3×10^8 M^-1.
